We go through one molecule from PMC4981864, “Novel pH-Sensitive Cyclic Peptides” (Scientific Reports, 2016).

Data set [1] can be described thus: Steady-state tryptophan fluorescence and CD with and without POPC liposomes. In kind it is physicochemical. The method, then: Large unilamellar vesicles (LUVs) were prepared by extrusion. POPC, 1-palmitoyl-2-oleoyl-sn-glycero-3-phosphocholine (Avanti Polar Lipids), or a mixture of POPC with 0.5% of 18:1 NBD-PE, 1,2-dioleoyl-sn-glycero-3-phosphoethanolamine-N-7-nitro-2-1,3-benzoxadiazol-4-yl ammonium salt (Avanti Polar Lipids) were dissolved in chloroform, desolvated on a rotary evaporator, and dried under high vacuum for several hours. The phospholipid film was then rehydrated in 10 mM phosphate buffer pH 8.0, vortexed until the lipid bilayer was completely dissolved, and repeatedly (15–21 times) extruded through the membranes with 50 nm pore sizes to obtain LUVs.
Freshly prepared peptides and POPC vesicles were mixed to have 5 μM of a peptide and 1.25 mM of lipids in the final solution. Steady-state fluorescence measurements were carried out on a PC1 spectrofluorometer (ISS, Inc.) under temperature control at 25 °C. Tryptophan fluorescence was excited at 280 nm (there is no Phe or Tyr in the peptides) and recorded with the excitation and emission slits set at 1 nm. The polarizers in the excitation and emission paths were set at the “magic” angle (54.7° from the vertical orientation) and vertically (0°), respectively. Steady state CD measurements were carried out in MOS 450 spectropolarimeter (Bio-Logic, Inc.) with the same concentrations of peptide and lipids used in fluorescence measurements.

Data set [2] is described as follows: Lipid titration, peptide-membrane partition model, Gibbs free energy. In kind it is physicochemical. The conditions noted are these: 5 μM peptide, varying 50 nm POPC liposomes. The method, then:
Samples containing 5 μM of peptides at pH 8 and pH 3, and varying concentrations of lipids of the 50 nm POPC liposomes were prepared. The fluorescence spectra of peptides in all samples were measured at 280 nm excitation at 25 °C. A series of POPC blanks with the same concentrations of lipids were measured with the same instrument settings and were subtracted from the corresponding fluorescence spectra of peptides in the presence of POPC. The areas under the emission spectra were calculated and the values were normalized to the first point (the emission of the peptide in the absence of POPC). The titration data were fitted by the peptide-membrane partition model to calculate the mole-fraction partition coefficient, K
where F0 is the fluorescence intensity at zero concentration of lipids (in our case F0 = 1); ΔF if the fluorescence increase in the result of the titration with lipids; Clipids is the concentration of lipids; W is the molar concentration of water (55.3 M). Nonlinear least squares curve fitting procedure using Levenberg-Marquardt algorithm was implemented in Origin 8.5.0 SR1. The Gibbs free energy (ΔG) was calculated according to the equation: […]
where R is the gas constant and T is the temperature in Kelvin.

Data set [3] is described as follows: Calculated weak-acid distribution Ci/Ce between inner and outer leaflets. The conditions noted are these: pKa 5.7. The text has this: Thus, cyclic peptides could be considered as a weak acid with multiple protonatable groups, which can diffuse across the bilayer. For weak acids, the intracellular-extracellular distribution, Ci/Ce, should be calculated according to the following equation: […]
where pHi and pHe are the intracellular and extracellular pH values, respectively. Since the cyclic peptides have affinity to the membrane, we consider Ci and Ce as the concentrations of the peptide on inner and outer leaflets, respectively. […] However, the same ratio increases to 4.5, 7.8, and 10.9 if extracellular pHe would be 6.5, 6.2 and 6.0, respectively. We assume that the symmetrical WE peptides have the same mechanism of action as an asymmetric peptide, however they have less favorable localization of Trp and Glu residues, which reduces their ability to accumulate at the inner leaflet of bilayer of cellular membranes and target acidic tumors. Leu-containing peptides are less advantageous due to their reduced affinity to the headgroup part of the bilayer and high affinity to the center of the membrane.

Data set [4] in a line: Dual quenching assay (acrylamide / 10-DN). Type of data set: physicochemical. Conditions: 7 μM peptide, 2.1 mM POPC. From the text: To establish localization of the peptides within a lipid bilayer of membrane, dual quenching assay[28] was employed (Fig. 3 and Table S3). Effective quenching of fluorescence by acrylamide would occur only for tryptophan residues exposed to polar parts of the outer or inner leaflets of the bilayer. At the same time, tryptophan residues located in the middle of a membrane would be effectively quenched by 10-DN. The result of the dual quenching assay allows establishing if tryptophan residues were located in the middle of a membrane or close to the polar headgroups of the bilayer. […] Therefore, we also performed Förster resonance energy transfer (FRET) assay[29] (Fig. 4). First, symmetrically-labelled by NBD dye, POPC liposomes were prepared. Then, membrane-impermeable dithionite was used to chemically modify exposed NBD, which led to the quenching of NBD fluorescence. Thus, NBD dyes located at the outer leaflet of the bilayer were deactivated and excess of dithionite was removed by gel filtration. As a result, asymmetrically-labelled liposomes with active NBD at the inner leaflet were obtained. FRET was monitored from tryptophan residues of the peptides to NBD. Energy transfer might occur only when both fluorophores are in proximity to each other (within 5–15 Å). Thus, when tryptophan residues located at the outer leaflet of the bilayer no significant energy transfer to NBD at the inner leaflet would occur (the distance is about 50–60 Å). […] All other peptides were located at the outer leaflet of the bilayer at pH 8. Drop of pH promoted partitioning of all cyclic peptides into bilayer, which highest FRET for the c[E4W5C] at pH 3.
POPC liposomes without and with 10% of the lipids replaced by 10-doxylnonadecane (10-DN) (Avanti Polar Lipids) were prepared in 10 mM citrate-phosphate buffer pH 8.0. Peptides and POPC liposomes were mixed to generate final concentrations of 7 μM peptide and 2.1 mM POPC without and with 10-DN. […] Quencher, acrylamide (Sigma-Aldrich), was added to the samples of POPC liposomes containing no 10-DN, to have final concentration of 235 mM acrylamide. Concentration of peptides in all samples was kept constant. To observe quenching of tryptophan fluorescence by 10-DN or acrylamide, the tryptophan fluorescence was recorded as described above. The appropriate POPC blanks were measured and subtracted from the measured spectra before analysis. The percentage of quenching was calculated.

Regarding `O=C(O)CC[C@@H]1NC(=O)[C@H](CS)NC(=O)[C@H](Cc2c[nH]c3ccccc23)NC(=O)[C@H](Cc2c[nH]c3ccccc23)NC(=O)[C@H](Cc2c[nH]c3ccccc23)NC(=O)[C@H](Cc2c[nH]c3ccccc23)NC(=O)[C@H](Cc2c[nH]c3ccccc23)NC(=O)[C@H](CCC(=O)O)NC(=O)[C@H](CCC(=O)O)NC(=O)[C@H](CCC(=O)O)NC1=O` [c[E4W5C]], the “maximum position of the fluorescence spectrum λmax, Pep, pH8” value in data set [1] (peptide in phosphate buffer pH 8, no liposomes, 5 μM peptide, excitation 280 nm, 25 °C) was found to be 350.6±0.2 nm. The “maximum position of the fluorescence spectrum λmax, Pep-PC, pH3” value in data set [1] (with POPC liposomes pH 3, 5 μM peptide, 1.25 mM lipids, excitation 280 nm, 25 °C) was determined as 340.2±0.4 nm. In data set [1] (with POPC liposomes pH 3, normalized on area for peptide at pH 8 in absence of POPC), the “S, normalized area under the spectra, Pep-PC, pH3” value was determined as 2.4±0.5. In addition, in data set [1] (with POPC liposomes pH 8, 5 μM peptide, 1.25 mM lipids, excitation 280 nm, 25 °C), the “maximum position of the fluorescence spectrum λmax, Pep-PC, pH8” value was found to be 342.8±0.4 nm. Further, in data set [1] (with POPC liposomes pH 8, normalized on area for peptide at pH 8 in absence of POPC), the “S, normalized area under the spectra, Pep-PC, pH8” value turned out to be 2.4±0.3. The “additional free energy released at low pH” value in data set [2] (pH 3 versus pH 8, 25 °C) was “about 0.7 kcal/mol”. Further, in data set [2] (pH 8, 25 °C, partition model), the “free energy released on partitioning into the lipid bilayer at pH 8” value is reported as “About 7.3 kcal/mol”. The “concentration ratio at the inner and outer leaflets, Ci/Ce” value is reported as 10.9 in data set [3] (pHe 6.0, pHi = 7.2); 7.8 in data set [3] (pHe 6.2, pHi = 7.2); 4.5 in data set [3] (pHe 6.5, pHi = 7.2); 0.6 in data set [3] (pHe = 7.4, pHi = 7.2). The “percentage of fluorescence quenching, Pep-PC+AC pH3” value in data set [4] (235 mM acrylamide, pH 3) amounted to 54%. For the same molecule, in data set [4] (235 mM acrylamide, pH 8), the “percentage of fluorescence quenching, Pep-PC+AC pH8” value is reported as 61%. Also, in data set [4] (10% of lipids replaced by 10-DN, pH 3), the “percentage of fluorescence quenching, Pep-PC+10-DN pH3” value was found to be 52%. Moreover, the “percentage of fluorescence quenching, Pep-PC+10-DN pH8” value in data set [4] (10% of lipids replaced by 10-DN, pH 8) is reported as 49%.
